Assay results from paper PMC7927808 (Antimicrobial Agents and Chemotherapy, 2020).

Legend:
S. aureus N315 pRB474 = assay: MIC determination, broth microdilution in BM; format: cell-based, Staphylococcus aureus; settings: Table S2, mean MIC in BM-medium; empty vector strain; 37°C, 24 h, 75% growth reduction; at least three independent experiments
Experimental: (§1) Further strains used for MIC determination were S. aureus N315 with plasmids pRB474, pRB474-lugI, pRB474-lugEF, pRB474-lugIEF, pRB474-lugGH, pRB474-lugIGH, pRB474-lugEFGH, and pRB474-lugIEFGH.
(§2) If necessary, antibiotic was used at a concentration of 10 μg ml^−1 for chloramphenicol.
(§3) Strains used for MIC determinations were grown overnight in BM, with chloramphenicol for plasmid-containing strains, under continuous shaking at 37°C. Each strain was adjusted to OD600 of 0.0625 in BM. The antimicrobial molecule stock solutions were serially diluted in BM in 96-well microtiter plates. Each well with 100 μl medium, and chloramphenicol, if required, was inoculated with 2 μl of the OD600 of 0.0625 bacterial stock solution. The plates were incubated at 37°C for 24 h under continuous shaking (160 rpm). The OD600 of each well was measured with a microplate reader, and the concentration leading to a 75% growth reduction was calculated and defined as the MIC value.

[1] = tested on: S. aureus N315 pRB474-lugIEFGH; assay: MIC determination, broth microdilution in BM; format: cell-based, Staphylococcus aureus; settings: for Effect of constitutive LugIEFGH expression on S. aureus susceptibility (in words): S. aureus pRB474-lugIEFGH compared with S. aureus pRB474 (Fig. 4); for MIC S. aureus pRB474-lugIEFGH: Table S2, mean MIC in BM-medium, 37°C, 24 h, 75% growth reduction, at least three independent experiments; for Ratio of MICs, S. aureus pRB474-lugIEFGH versus S. aureus pRB474: Table S2 / Fig. 4b, BM-medium
Experimental: as §1, §2, §3

Molecule | MIC S. aureus pRB474 (S. aureus N315 pRB474) | Effect of constitutive LugIEFGH expression on S. aureus susceptibility (in words) [1] | MIC S. aureus pRB474-lugIEFGH [1] | Ratio of MICs, S. aureus pRB474-lugIEFGH versus S. aureus pRB474 [1]
enantio-lugdunin | 31.3 µg/mL | some degree of resistance | 69.8 µg/mL | 2.23
CO[C@@H]1C[C@@H](C[C@H]2CC[C@H](C)[C@H]([C@@H](C)C(=O)O)O2)O[C@]2(O[C@](C)([C@H]3CC[C@@](C)([C@@H]4O[C@@H]([C@H]5O[C@@](O)(CO)[C@H](C)C[C@@H]5C)C[C@@H]4C)O3)C[C@H]2C)[C@@H]1C [nigericin] | 0.25 µg/mL | did not affect the susceptibility | 0.25 µg/mL | 1.00
gramicidin S | 2.75 µg/mL | did not affect the susceptibility | 2.74 µg/mL | 1.00
2-Ala-lugdunin | 40.2 µg/mL | no resistance against the 2-Ala congener was conferred | 39.9 µg/mL | 0.99
N#CC(C#N)=NNc1cccc(Cl)c1 [CCCP, carbonyl cyanide m-chlorophenylhydrazone] | 0.63 µg/mL | did not affect the susceptibility | 0.64 µg/mL | 1.02
daptomycin | 2.17 µg/mL | did not affect the susceptibility | 2.17 µg/mL | 1
6-Trp-lugdunin | 16.4 µg/mL | Similar, though even less pronounced | 31.1 µg/mL | 1.89
